These results are taken from PubChem BioAssay (NCI).

Test systems include 786-0 renal; A549 NSCLC; COLO 205 colon; K-562 leukemia; MOLT-4 leukemia; NCI-H23 lung; NCI/ADR-RES ovarian; PC-3 prostate; SK-MEL-5 melanoma; HL-60(TB) leukemia.
What all share (assay): inhibition of tumour cell growth, NCI panel, 48 h

Values joined by “and” are separate entries in the source; they are usually repeats but may differ in a detail not shown here. Equal values may be shown once.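 Compound exposure: 48 hours, 5 concentrations, 96-well plates. Here, GI50 denotes the concentration required for 50% inhibition of growth. The concentration for full growth arrest is given as TGI.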 Some results are limits rather than exact numbers.

As for `COc1ccc2c(c1)CCc1[nH]nc(-c3cc(OC)c(OC)c(OC)c3)c1-2`, the GI50 with 786-0 renal, with A549 NSCLC, with COLO 205 colon, in the assay on K-562 leukemia, in the assay on MOLT-4 leukemia and in the assay with NCI-H23 lung was below 0.01 µM in each case. The GI50 in the assay with NCI/ADR-RES ovarian, with PC-3 prostate and in the assay with SK-MEL-5 melanoma was below 0.01 µM throughout. The TGI in the assay on 786-0 renal is 11.5 µM; in the assay with A549 NSCLC it was 19.5 µM; in the assay on COLO 205 colon, below 0.01 µM; in the assay with K-562 leukemia it was above 100 µM; in the assay on MOLT-4 leukemia, above 100 µM; in the assay with NCI-H23 lung it was 3.53 µM. For the same compound, the results for the TGI in the assay on NCI/ADR-RES ovarian, in the assay on PC-3 prostate and with SK-MEL-5 melanoma were below 0.01 µM, 17.8 µM and below 0.01 µM, respectively.

Regarding `CCN(CC)CCCC(C)Nc1c2ccc(Cl)cc2nc2cc(OC)c(OC)cc12` (stereo unspecified), the GI50 is 1.46 µM in the assay with 786-0 renal; 1.85 µM in the assay with A549 NSCLC; 2.81 µM with HL-60(TB) leukemia; 2.4 µM in the assay on K-562 leukemia; 0.594 µM with MOLT-4 leukemia; 1.48 µM with NCI-H23 lung. Further, the GI50 with NCI/ADR-RES ovarian is 2.47 µM; in the assay on PC-3 prostate, 2.08 µM; with SK-MEL-5 melanoma, 1.81 µM. For the same compound, the TGI in the assay with 786-0 renal came out at 5.57 µM; in the assay on A549 NSCLC, 4.56 µM; in the assay on HL-60(TB) leukemia it was 9.31 µM; in the assay with K-562 leukemia it was 8.77 µM; with MOLT-4 leukemia, 12.6 µM; with NCI-H23 lung, 3.25 µM. The TGI in the assay with NCI/ADR-RES ovarian was determined as 9.69 µM; in the assay on PC-3 prostate, 6.28 µM; in the assay with SK-MEL-5 melanoma, 3.21 µM.

Take `O=C1c2cc(-c3ccccc3)ccc2-c2c1c1ccc([N+](=O)[O-])cc1c(=O)n2CCCBr`: the GI50 with 786-0 renal is above 31.7 µM; in the assay on A549 NSCLC, above 50 µM; with COLO 205 colon, above 50 µM; with MOLT-4 leukemia, above 50 µM; in the assay on NCI-H23 lung, above 50 µM; in the assay on NCI/ADR-RES ovarian, above 50 µM. The GI50 in the assay on PC-3 prostate and in the assay on SK-MEL-5 melanoma was above 50 µM throughout. For the same compound, the TGI with 786-0 renal was above 50 µM; with A549 NSCLC it was above 50 µM; in the assay with COLO 205 colon, above 50 µM; in the assay with K-562 leukemia, above 12.2 µM; in the assay with MOLT-4 leukemia it was above 50 µM; in the assay on NCI-H23 lung, above 50 µM. Further, the TGI in the assay with NCI/ADR-RES ovarian, in the assay with PC-3 prostate and with SK-MEL-5 melanoma was above 50 µM in each case.

In the case of `O=C(/C=C/c1cccc([N+](=O)[O-])c1)c1ccc(O)c(CN2CCN(c3cc4c(cc3F)c(=O)c(C(=O)O)cn4C3CC3)CC2)c1`, the GI50 was 1.57 µM in the assay on 786-0 renal; 3.1 µM with A549 NSCLC; 2.24 µM with HL-60(TB) leukemia; 0.404 µM in the assay on K-562 leukemia; 2.25 µM with MOLT-4 leukemia; 1.81 µM in the assay with NCI-H23 lung. Also, the GI50 was 2.85 µM in the assay with NCI/ADR-RES ovarian, 1.85 µM in the assay on PC-3 prostate and 1.7 µM with SK-MEL-5 melanoma. Further, the TGI in the assay with 786-0 renal was 3 µM; in the assay with A549 NSCLC it was 17.2 µM; in the assay on HL-60(TB) leukemia, 6.58 µM; with K-562 leukemia, above 100 µM; with MOLT-4 leukemia, 8.41 µM; with NCI-H23 lung, 3.83 µM. Moreover, the TGI turned out to be 9.34 µM in the assay with NCI/ADR-RES ovarian, 5.37 µM with PC-3 prostate and 3.25 µM with SK-MEL-5 melanoma.

Consider `O=C(Nc1ccc2[nH]c(C(=O)N3CC(CCl)c4c3cc([N+](=O)[O-])c3ccccc43)cc2c1)c1cc2ccccc2o1` (stereo unspecified), for which the GI50 in the assay with 786-0 renal was above 1100 µM; with A549 NSCLC, above 1100 µM; in the assay on COLO 205 colon, above 1100 µM; in the assay on HL-60(TB) leukemia, 33.2 µM; in the assay on MOLT-4 leukemia, 180 µM; in the assay with NCI-H23 lung, above 1100 µM. Moreover, the GI50 with NCI/ADR-RES ovarian and in the assay on SK-MEL-5 melanoma was above 1100 µM each time. Also, the TGI with 786-0 renal was above 1100 µM; with A549 NSCLC, above 1100 µM; with COLO 205 colon it was above 1100 µM; in the assay with HL-60(TB) leukemia it was 380 µM; in the assay with MOLT-4 leukemia it was above 1100 µM; with NCI-H23 lung it was above 1100 µM. For the same compound, the TGI with NCI/ADR-RES ovarian and in the assay with SK-MEL-5 melanoma was above 1100 µM in each case.

Take `CN1CCN(C(=O)c2c(NC(=O)NS(=O)(=O)c3ccccc3)sc3c2CCCCC3)CC1`: the GI50 in the assay on 786-0 renal is 19.2 µM; in the assay on A549 NSCLC, 65.7 µM; in the assay with HL-60(TB) leukemia it was 48.2 µM; in the assay on K-562 leukemia, 33.6 µM; in the assay with MOLT-4 leukemia it was above 100 µM; with NCI-H23 lung it was 24.3 µM. The GI50 was 34 µM with NCI/ADR-RES ovarian, 30.6 µM with PC-3 prostate and 20.5 µM with SK-MEL-5 melanoma. For the same compound, the TGI in the assay on 786-0 renal was 53 µM; with A549 NSCLC it was above 100 µM; in the assay with HL-60(TB) leukemia it was above 100 µM; with K-562 leukemia it was above 100 µM; with MOLT-4 leukemia it was above 100 µM; with NCI-H23 lung it was 52.1 µM. For the same compound, the results for the TGI in the assay on NCI/ADR-RES ovarian, in the assay on PC-3 prostate and in the assay on SK-MEL-5 melanoma were above 100 µM, above 100 µM and 40.2 µM, respectively.

`CC(=O)OC1CC[C@@]2(C)C(CC[C@]3(C)C2CC=C2[C@@H]4CC(C)(C)CCC4(C)CCC23C)[C@@]1(C)C(=O)O` (stereo partly specified): the TGI was 45.9 µM with 786-0 renal; 33.9 µM in the assay with A549 NSCLC; 48.5 µM in the assay with COLO 205 colon; 83.5 µM with HL-60(TB) leukemia; 61.9 µM in the assay on K-562 leukemia; 47.3 µM in the assay with MOLT-4 leukemia. Moreover, the values for the TGI in the assay on NCI-H23 lung, in the assay with PC-3 prostate and with SK-MEL-5 melanoma were 43.9 µM, 23.1 µM and 47.9 µM, respectively.

For `CCCCOC(=O)c1ccc(NC(=O)CCl)cc1`, the GI50 in the assay with 786-0 renal was 2.04 µM; with A549 NSCLC it was 10.2 µM; in the assay on HL-60(TB) leukemia, 2.28 µM; with K-562 leukemia, 2.98 µM; in the assay with MOLT-4 leukemia it was 1.82 µM; in the assay with NCI-H23 lung, 2.4 µM. Further, the GI50 is 2.79 µM in the assay with NCI/ADR-RES ovarian, 3.24 µM with PC-3 prostate and 1.55 µM in the assay on SK-MEL-5 melanoma. Besides, the TGI in the assay with 786-0 renal is 3.74 µM; in the assay on A549 NSCLC it was 22.8 µM; in the assay with HL-60(TB) leukemia it was 4.86 µM; in the assay with K-562 leukemia it was above 100 µM; with MOLT-4 leukemia, 6.21 µM; in the assay on NCI-H23 lung it was 7.47 µM. Further, the TGI worked out at 8.84 µM in the assay with NCI/ADR-RES ovarian, 12.4 µM with PC-3 prostate and 3.04 µM in the assay on SK-MEL-5 melanoma.

As for `Cc1ccc(C(=O)/C(=C\c2ccc([N+](=O)[O-])cc2)S(=O)Cc2ccc(F)cc2)cc1` (stereo unspecified), the GI50 with 786-0 renal is 1.37 µM; with A549 NSCLC, 2.86 µM; with COLO 205 colon it was 1.92 µM; in the assay on HL-60(TB) leukemia, 1.67 µM; in the assay with MOLT-4 leukemia, 1.3 µM; in the assay on NCI-H23 lung it was 1.69 µM. For the same compound, the GI50 in the assay on NCI/ADR-RES ovarian was 2.28 µM; in the assay on PC-3 prostate it was 1.52 µM; with SK-MEL-5 melanoma it was 1.76 µM. Moreover, the TGI with 786-0 renal was 2.68 µM; in the assay with A549 NSCLC, 8.8 µM; in the assay on COLO 205 colon, 3.76 µM; in the assay with HL-60(TB) leukemia, 5.02 µM; with MOLT-4 leukemia, 5.58 µM; with NCI-H23 lung, 3.36 µM. In addition, the figures for the TGI in the assay on NCI/ADR-RES ovarian, in the assay on PC-3 prostate and in the assay on SK-MEL-5 melanoma were 5.97 µM, 3.09 µM and 3.32 µM, respectively.

Turning to `N#Cc1ccc(C2C3=C(CCCC3=O)OC3=C2C(=O)c2ccccc2C3=O)cc1` (stereo unspecified), the GI50 is 1.87 µM in the assay on 786-0 renal; 7.66 µM in the assay on A549 NSCLC; 1.86 µM with COLO 205 colon; 0.259 µM in the assay with HL-60(TB) leukemia; 1.63 µM with MOLT-4 leukemia; 1.25 µM in the assay with NCI-H23 lung. Moreover, the GI50 in the assay with NCI/ADR-RES ovarian was 0.899 µM; in the assay on PC-3 prostate it was 2.17 µM; with SK-MEL-5 melanoma it was 1.72 µM. Further, the TGI was 3.76 µM with 786-0 renal; 22.3 µM in the assay on A549 NSCLC; 3.63 µM in the assay on COLO 205 colon; 1.27 µM with HL-60(TB) leukemia; 5.53 µM with MOLT-4 leukemia; 5.03 µM in the assay with NCI-H23 lung. Further, the values for the TGI with NCI/ADR-RES ovarian, in the assay on PC-3 prostate and in the assay with SK-MEL-5 melanoma were 7.81 µM, 12.2 µM and 3.25 µM, respectively.

In the case of `c1ccc(Nn2c(CCCCCCCCc3nnc(COc4ccccc4)n3Nc3ccccc3)nnc2COc2ccccc2)cc1`, the GI50 is 29 µM and 36.3 µM in the assay with 786-0 renal; 3.18 µM and 19.6 µM with COLO 205 colon; 2.55 µM and 9.66 µM with HL-60(TB) leukemia; 3.71 µM and 2.17 µM in the assay with K-562 leukemia; 14.5 µM in the assay with MOLT-4 leukemia; 37.2 µM and 76.8 µM in the assay on NCI-H23 lung. Further, the GI50 was 11.5 µM and 20.6 µM with NCI/ADR-RES ovarian; 8.32 µM and 23.9 µM in the assay on PC-3 prostate; 6.41 µM and 50 µM in the assay on SK-MEL-5 melanoma. Also, the TGI is above 300 µM in the assay with 786-0 renal; 8.81 µM and 77.1 µM in the assay on COLO 205 colon; above 300 µM in the assay with HL-60(TB) leukemia; above 300 µM in the assay with K-562 leukemia; above 300 µM in the assay on MOLT-4 leukemia; above 300 µM in the assay on NCI-H23 lung. In addition, the TGI in the assay with NCI/ADR-RES ovarian, in the assay with PC-3 prostate and with SK-MEL-5 melanoma was above 300 µM throughout.

As for `Cc1ccc(C(=O)N2CCN(C(=O)c3ccc(C)cc3)c3ccccc32)cc1`, the TGI in the assay with 786-0 renal is 43.2 µM; with A549 NSCLC, above 100 µM; in the assay with COLO 205 colon it was 32.2 µM; in the assay with HL-60(TB) leukemia, 4.21 µM; in the assay with K-562 leukemia, above 100 µM; with MOLT-4 leukemia, above 46.4 µM. Also, the TGI with NCI-H23 lung is above 100 µM; in the assay with PC-3 prostate, above 100 µM; with SK-MEL-5 melanoma it was 43.5 µM.

`C[C@]1(C(=O)O)N[C@H](C(=O)O)CS1`: the GI50 in the assay on 786-0 renal was above 1000 µM; in the assay on A549 NSCLC, above 1000 µM; with COLO 205 colon it was above 1000 µM; in the assay on K-562 leukemia, 2.34 µM; with NCI-H23 lung, above 1000 µM; in the assay on NCI/ADR-RES ovarian, above 1000 µM. Also, the GI50 with PC-3 prostate was above 1000 µM; with SK-MEL-5 melanoma it was 1.48 µM. Besides, the TGI in the assay on 786-0 renal, in the assay on A549 NSCLC, in the assay on COLO 205 colon, with K-562 leukemia, in the assay on NCI-H23 lung and with NCI/ADR-RES ovarian was above 1000 µM in each case. The TGI in the assay with PC-3 prostate is above 1000 µM; in the assay on SK-MEL-5 melanoma, 270 µM.
